# Reference: patent publication US20150322083A1, “(THIENO[2,3-b][1,5]BENZOXAZEPIN-4-YL)PIPERAZIN-1-YL COMPOUNDS AS SELECTIVE 5-HT2A INVERSE AGONISTS” (Eli Lilly and Company, priority 2014, published 2015)
# What was measured:
# Dopamine D3 = Dopamine D3 (Homo sapiens, UniProt P35462); assay: Dopamine D3 binding
# Protocol: (§1) Curves are evaluated using a 4-parameter logistic nonlinear equation to obtain the concentration of competitor causing 50% inhibition of radioligand binding (IC50). Equilibrium dissociation constants (Ki) are calculated according to the equation Ki=IC50/(1+L/Kd), where L equals the concentration of radioligand used in the experiment and Kd equals the equilibrium dissociation constant of the radioligand for the receptor, determined from standard saturation analysis or homologous competition experiments. Reported values for Ki, where n values are indicated, are shown as geometric mean±the standard error of the mean (SEM), with the number of replicate determinations indicated by n. Geometric means are calculated by the equation GeoMean=10̂(Average(log Ki 1+log Ki 2+ . . . log Ki n)/[…]).
# (§2) Further, the compounds of the invention may be tested in binding assays and functional activity assays by well known methods for other physiologically important receptors such as, but not limited to, the hERG channel, other serotonin receptors (specifically 5-HT1B receptors, lack of agonist activity at 5-HT2B receptors, 5-HT2C, 5-HT5, 5-HT6, and 5-HT7 receptors), dopaminergic receptors (specifically D1, D2, and D3), H1 receptors, GABAA receptors, adrenergic receptors and monoamine transporters.
# Dopamine D2 = Dopamine D2 (Homo sapiens, UniProt P14416); assay: Dopamine D2 binding
# Chain of Dopamine D2 (P14416 whole entry): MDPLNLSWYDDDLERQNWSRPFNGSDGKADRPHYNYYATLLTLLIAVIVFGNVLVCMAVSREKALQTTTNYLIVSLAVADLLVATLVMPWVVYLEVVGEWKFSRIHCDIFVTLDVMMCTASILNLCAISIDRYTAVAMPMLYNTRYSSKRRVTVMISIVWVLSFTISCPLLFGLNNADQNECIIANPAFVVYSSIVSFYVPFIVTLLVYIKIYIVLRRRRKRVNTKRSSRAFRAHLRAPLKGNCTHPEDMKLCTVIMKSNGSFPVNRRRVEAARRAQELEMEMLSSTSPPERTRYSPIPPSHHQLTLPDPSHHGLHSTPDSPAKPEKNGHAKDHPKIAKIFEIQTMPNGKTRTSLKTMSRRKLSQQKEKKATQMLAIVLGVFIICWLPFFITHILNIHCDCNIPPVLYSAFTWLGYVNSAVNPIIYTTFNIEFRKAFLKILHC
# Protocol: as §1, §2
# Adrenergic alpha2A = Adrenergic alpha2A (Homo sapiens, UniProt P08913); assay: Adrenergic alpha2A binding
# Chain of Adrenergic alpha2A (P08913 whole entry): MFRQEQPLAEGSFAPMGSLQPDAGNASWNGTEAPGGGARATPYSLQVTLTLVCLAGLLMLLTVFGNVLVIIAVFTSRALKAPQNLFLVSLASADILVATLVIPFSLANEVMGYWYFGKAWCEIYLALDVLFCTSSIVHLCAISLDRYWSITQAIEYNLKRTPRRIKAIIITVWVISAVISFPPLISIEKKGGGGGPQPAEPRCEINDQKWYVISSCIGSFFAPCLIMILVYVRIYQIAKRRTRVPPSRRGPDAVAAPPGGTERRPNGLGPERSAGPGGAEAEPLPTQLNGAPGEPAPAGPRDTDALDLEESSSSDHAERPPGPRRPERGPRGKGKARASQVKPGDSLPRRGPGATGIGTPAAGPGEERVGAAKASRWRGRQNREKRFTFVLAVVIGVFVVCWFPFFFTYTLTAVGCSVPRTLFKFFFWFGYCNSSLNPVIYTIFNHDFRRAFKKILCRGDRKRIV
# Protocol: as §1, §2
# 5-HT7 receptors = 5-HT7 receptors (Homo sapiens, UniProt P34969); assay: 5-HT7 binding
# Chain of 5-HT7 receptors (P34969 whole entry): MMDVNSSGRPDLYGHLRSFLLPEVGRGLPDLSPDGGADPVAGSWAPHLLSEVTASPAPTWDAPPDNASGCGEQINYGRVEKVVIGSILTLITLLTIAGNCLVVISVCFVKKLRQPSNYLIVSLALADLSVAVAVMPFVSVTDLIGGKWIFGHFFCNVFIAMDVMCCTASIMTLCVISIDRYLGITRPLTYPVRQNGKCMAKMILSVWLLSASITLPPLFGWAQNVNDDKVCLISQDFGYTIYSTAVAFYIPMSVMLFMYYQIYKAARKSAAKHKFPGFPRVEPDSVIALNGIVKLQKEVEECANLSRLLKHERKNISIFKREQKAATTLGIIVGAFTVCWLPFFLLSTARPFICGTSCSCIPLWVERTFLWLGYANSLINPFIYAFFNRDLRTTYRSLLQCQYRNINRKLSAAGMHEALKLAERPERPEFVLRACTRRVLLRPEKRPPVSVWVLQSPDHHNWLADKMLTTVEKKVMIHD
# Protocol: as §1, §2
# 5-HT2A receptor = target: T1, 5-HT2A receptor (Rattus norvegicus, UniProt P14842); assay: 5-HT2A receptor occupancy in vivo (MDL 100907 tracer); design: species or system male Sprague-Dawley rats; conditions: oral gavage, 1 hr. before tracer
# T1 construct: from tissue; host or cells: rat brain (frontal cortex vs cerebellum), in vivo
# T1 sequence (P14842 whole entry): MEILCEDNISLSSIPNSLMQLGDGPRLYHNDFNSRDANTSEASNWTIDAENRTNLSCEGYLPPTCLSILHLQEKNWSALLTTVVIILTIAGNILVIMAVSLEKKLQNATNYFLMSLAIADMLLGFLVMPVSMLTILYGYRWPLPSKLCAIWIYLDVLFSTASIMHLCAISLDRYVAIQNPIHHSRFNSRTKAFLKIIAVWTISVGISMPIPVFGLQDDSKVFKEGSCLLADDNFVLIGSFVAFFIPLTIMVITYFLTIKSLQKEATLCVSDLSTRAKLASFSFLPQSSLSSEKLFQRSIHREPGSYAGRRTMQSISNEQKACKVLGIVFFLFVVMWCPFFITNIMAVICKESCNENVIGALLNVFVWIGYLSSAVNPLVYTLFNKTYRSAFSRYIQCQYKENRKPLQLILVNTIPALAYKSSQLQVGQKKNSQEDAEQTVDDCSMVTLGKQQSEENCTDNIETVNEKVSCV
# Protocol: Briefly, male Sprague-Dawley rats (Harlan Sprague-Dawley, Indianapolis, Ind.) weighing approximately 230-280 g are given ad lib access to food and water until the beginning of the 3 hr. experimental protocol. 1 mg/Kg ketanserin (non-selective 5-HT2A antagonist) is used as a positive control to establish assay validity. Test compounds or control are administered by oral gavage in a vehicle comprised of 20% hydroxypropyl beta-cyclodextrin. MDL 100907 ((R)-(+)-α-(2,3-Dimethoxyphenyl)-1-[2-(4-fluorophenyl)ethyl]-4-piperidinemethanol), a selective 5-HT2A antagonist, is used as a tracer. […] It is at the time of tracer administration that receptor occupancy (RO) is considered to be measured. […] The level of MDL 100907 tracer is measured in each cortical and cerebellar sample. RO is calculated using the well-established ratio method which employs a region of high receptor density representative of total binding (frontal cortex) normalized by an area without or with very low levels of receptor (cerebellum). […]
# MDL 100907 Analysis: Cortex and cerebellar samples are weighed and placed in conical centrifuge tubes on ice. […] Standards are prepared by adding known quantities of analyte to brain tissue samples from non-treated rats and processing as described above.+− […]
# Chain of Dopamine D3 (P35462 whole entry): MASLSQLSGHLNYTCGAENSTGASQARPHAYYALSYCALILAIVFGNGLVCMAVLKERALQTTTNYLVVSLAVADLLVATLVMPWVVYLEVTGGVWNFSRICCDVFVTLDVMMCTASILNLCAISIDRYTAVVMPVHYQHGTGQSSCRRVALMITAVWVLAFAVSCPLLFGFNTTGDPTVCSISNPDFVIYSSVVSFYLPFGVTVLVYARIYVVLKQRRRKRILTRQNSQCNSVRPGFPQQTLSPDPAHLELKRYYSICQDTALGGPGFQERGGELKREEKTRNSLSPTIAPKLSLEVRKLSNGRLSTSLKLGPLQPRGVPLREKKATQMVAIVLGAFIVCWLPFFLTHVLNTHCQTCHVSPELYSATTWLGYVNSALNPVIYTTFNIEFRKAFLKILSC
compound,measurement,setting,value
"Cc1ccc2c(c1)Oc1sc(SC(C)C)cc1C(N1CCN(CC(C)(C)C(=O)O)CC1)=N2 [Example 1, 3-[4-(2-isopropylsulfanyl-8-methyl-thieno[2,3-b][1,5]benzoxazepin-4-yl)piperazin-1-yl]-2,2-dimethyl-propanoic acid]",Ki,Dopamine D3,> 5.47 µM
same,Ki,Dopamine D2,> 7.66 µM
same,Ki,Adrenergic alpha2A,> 1.61 µM
same,Ki,5-HT7 receptors,> 2.06 µM
same,ED50,5-HT2A receptor,0.54 mg/kg
